The text below walks through data of patent publication US20260167619A2, “INDOLINE COMPOUNDS AND DERIVATIVES AS EGFR INHIBITORS” (BeOne Medicines I GmbH, priority 2020, published 2026).

The target of test [1] is T1, EGFR (aa668-1210, Invitrogen) (Homo sapiens, UniProt P00533).
T1 construct: EGFR (aa668-1210, Invitrogen); purchased Invitrogen
Kind of test: Biochemical EGFR inhibition assay (TR-FRET), wild-type EGFR. The note with it: ATP at Km, 15 min pre-incubation, 60 min reaction; read-out: WT (Km ATP) IC50. An outline of the steps: (§1)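 Biotin-poly GT phosphorylation detected with Eu-cryptate anti-phosphotyrosine (PT66) and XL665-streptavidin after EDTA/KF stop, 665/620 nm ratio. Enzyme and compound preincubated 15 min, then ATP at Km added for 60 min at room temperature. Four-parameter logistic fit gives IC50.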
(In TR-FRET formats the signal depends on donor and acceptor labels being close together.)

The target of test [2] is T2, EGFR(L858R_T790M_C797S) (aa695-end, Invitrogen) (Homo sapiens, UniProt P00533, C797S/L858R/T790M).
T2 construct: purchased Invitrogen
T2 sequence (P00533 695-1210 T790M/C797S/L858R): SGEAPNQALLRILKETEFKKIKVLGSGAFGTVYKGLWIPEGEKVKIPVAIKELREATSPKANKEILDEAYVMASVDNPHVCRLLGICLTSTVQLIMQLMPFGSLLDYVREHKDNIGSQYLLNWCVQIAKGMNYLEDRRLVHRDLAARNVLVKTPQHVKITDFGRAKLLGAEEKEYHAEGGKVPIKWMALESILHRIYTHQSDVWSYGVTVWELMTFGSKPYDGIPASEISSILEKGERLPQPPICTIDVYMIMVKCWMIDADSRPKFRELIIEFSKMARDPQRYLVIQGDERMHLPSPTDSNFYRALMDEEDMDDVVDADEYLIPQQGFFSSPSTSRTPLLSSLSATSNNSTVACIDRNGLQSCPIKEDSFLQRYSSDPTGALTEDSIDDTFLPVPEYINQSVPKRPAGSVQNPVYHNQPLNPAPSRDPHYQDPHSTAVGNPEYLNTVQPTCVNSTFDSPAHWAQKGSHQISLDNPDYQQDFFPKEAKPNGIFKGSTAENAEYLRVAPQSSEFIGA
Kind of test: Biochemical EGFR inhibition assay (TR-FRET), L858R/T790M/C797S mutant. The note with it: ATP at Km, 15 min pre-incubation, 60 min reaction; read-out: LR_TM_CS (Km ATP) IC50. An outline of the steps: as §1

For test [3], the target named is BaF3-LR_TM_CS cells (Homo sapiens, UniProt P00533, T790M/C797S/L858R, cells depend on it). In words: Cell antiproliferation assay (CellTiter-Glo), BaF3-LR_TM_CS. The conditions noted are these: 48 h treatment, read-out: BaF3-LR_TM_CS IC50. It counts as cell-based. As for the experimental part: (§2) BaF3 cells are treated with compounds diluted in 0.2% DMSO, dilution is done according to the following protocol: (1) make 500× stock solution in DMSO from 5 mM by 5-fold dilution, total 8 doses were included; (2) make 10× solution in cell culture medium by transferring 2 μl 500× stock solution into 98 μl medium; (3) 10 μl of 10× solution is added to cells and incubate for 48 h.
BaF3-LR_TM_CS cells, sequence (P00533 whole entry T790M/C797S/L858R): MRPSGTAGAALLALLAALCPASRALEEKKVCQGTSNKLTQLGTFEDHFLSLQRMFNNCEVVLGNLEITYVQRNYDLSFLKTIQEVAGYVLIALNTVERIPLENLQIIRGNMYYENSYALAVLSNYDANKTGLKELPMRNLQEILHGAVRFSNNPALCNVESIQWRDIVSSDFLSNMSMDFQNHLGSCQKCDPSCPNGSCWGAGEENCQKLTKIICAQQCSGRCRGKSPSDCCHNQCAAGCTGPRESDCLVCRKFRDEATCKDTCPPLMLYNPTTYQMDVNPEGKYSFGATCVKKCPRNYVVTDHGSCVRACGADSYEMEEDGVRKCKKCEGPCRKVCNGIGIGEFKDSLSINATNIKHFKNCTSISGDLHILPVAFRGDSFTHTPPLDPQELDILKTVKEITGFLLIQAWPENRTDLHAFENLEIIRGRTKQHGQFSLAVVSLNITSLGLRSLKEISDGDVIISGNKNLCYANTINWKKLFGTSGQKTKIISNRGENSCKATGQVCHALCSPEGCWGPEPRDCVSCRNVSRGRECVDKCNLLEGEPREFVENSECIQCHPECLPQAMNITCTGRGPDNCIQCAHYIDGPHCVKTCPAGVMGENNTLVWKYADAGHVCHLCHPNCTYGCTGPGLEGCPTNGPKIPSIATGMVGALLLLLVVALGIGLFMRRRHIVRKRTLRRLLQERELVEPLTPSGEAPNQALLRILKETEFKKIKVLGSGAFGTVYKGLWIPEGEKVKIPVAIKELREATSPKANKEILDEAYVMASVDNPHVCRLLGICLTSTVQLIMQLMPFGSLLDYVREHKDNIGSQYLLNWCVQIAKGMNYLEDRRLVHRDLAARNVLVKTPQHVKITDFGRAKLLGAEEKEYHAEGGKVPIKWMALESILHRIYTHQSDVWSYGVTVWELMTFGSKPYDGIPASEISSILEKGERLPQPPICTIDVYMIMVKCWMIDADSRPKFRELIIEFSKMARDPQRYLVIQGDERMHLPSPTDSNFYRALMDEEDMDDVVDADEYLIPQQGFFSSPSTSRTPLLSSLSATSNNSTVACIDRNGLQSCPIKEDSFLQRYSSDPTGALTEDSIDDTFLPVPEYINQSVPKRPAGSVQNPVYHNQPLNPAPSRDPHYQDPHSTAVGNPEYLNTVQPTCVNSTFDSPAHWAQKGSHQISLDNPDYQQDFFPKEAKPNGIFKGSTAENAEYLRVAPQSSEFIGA
(§3) After 48 h treatment, add 30 μl CellTiter-Glo reagent[CellTiter-Glo® 2.0, (Promega, Cat #G9242)] to each well; seal the plate and incubate 2 min at room temperature on a plate shaker; Allow the plate to incubate at room temperature for 10 minutes to stabilize the luminescent signal. Record luminescence on BMG PheraStar with luminescence protocol.
(§4) The IC50 value of a compound can be obtained by fitting the following equation
(§5) Wherein, X and Y are known values, and IC50, Hillslope, Top and Bottom are the parameters obtained by fitting with software. Y is the inhibition percentage (calculated from the equation), X is the concentration of the compound; IC50 is the concentration of the compound when the 50% inhibition is reached. The smaller the IC50 value is, the stronger the inhibitory ability of the compound is. Vice versa, the higher the IC50 value is, the weaker the ability the inhibitory ability of the compound is; Hillslope represents the slope of the fitted curve, generally around 1 *; Bottom represents the minimum value of the curve obtained by data fitting, which is generally 0%±20%; Top represents the maximum value of the curve obtained by data fitting, which is generally 100%±20%. The experimental data were fitted by calculating and analyzing with Dotmatics data analysis software.

The target in test [4] is BaF3-Del_TM_CS cells (Homo sapiens, UniProt P00533, T790M/C797S, cells depend on it, form not given). Kind of test: Cell antiproliferation assay (CellTiter-Glo), BaF3-Del_TM_CS. It counts as cell-based. The conditions noted are these: 48 h treatment, read-out: BaF3-Del_TM_CS IC50. The protocol: as §2, §3, §4, §5
BaF3-Del_TM_CS cells, sequence (P00533 with tags, fused parts or gaps DEL746-750/T790M/C797S, form open): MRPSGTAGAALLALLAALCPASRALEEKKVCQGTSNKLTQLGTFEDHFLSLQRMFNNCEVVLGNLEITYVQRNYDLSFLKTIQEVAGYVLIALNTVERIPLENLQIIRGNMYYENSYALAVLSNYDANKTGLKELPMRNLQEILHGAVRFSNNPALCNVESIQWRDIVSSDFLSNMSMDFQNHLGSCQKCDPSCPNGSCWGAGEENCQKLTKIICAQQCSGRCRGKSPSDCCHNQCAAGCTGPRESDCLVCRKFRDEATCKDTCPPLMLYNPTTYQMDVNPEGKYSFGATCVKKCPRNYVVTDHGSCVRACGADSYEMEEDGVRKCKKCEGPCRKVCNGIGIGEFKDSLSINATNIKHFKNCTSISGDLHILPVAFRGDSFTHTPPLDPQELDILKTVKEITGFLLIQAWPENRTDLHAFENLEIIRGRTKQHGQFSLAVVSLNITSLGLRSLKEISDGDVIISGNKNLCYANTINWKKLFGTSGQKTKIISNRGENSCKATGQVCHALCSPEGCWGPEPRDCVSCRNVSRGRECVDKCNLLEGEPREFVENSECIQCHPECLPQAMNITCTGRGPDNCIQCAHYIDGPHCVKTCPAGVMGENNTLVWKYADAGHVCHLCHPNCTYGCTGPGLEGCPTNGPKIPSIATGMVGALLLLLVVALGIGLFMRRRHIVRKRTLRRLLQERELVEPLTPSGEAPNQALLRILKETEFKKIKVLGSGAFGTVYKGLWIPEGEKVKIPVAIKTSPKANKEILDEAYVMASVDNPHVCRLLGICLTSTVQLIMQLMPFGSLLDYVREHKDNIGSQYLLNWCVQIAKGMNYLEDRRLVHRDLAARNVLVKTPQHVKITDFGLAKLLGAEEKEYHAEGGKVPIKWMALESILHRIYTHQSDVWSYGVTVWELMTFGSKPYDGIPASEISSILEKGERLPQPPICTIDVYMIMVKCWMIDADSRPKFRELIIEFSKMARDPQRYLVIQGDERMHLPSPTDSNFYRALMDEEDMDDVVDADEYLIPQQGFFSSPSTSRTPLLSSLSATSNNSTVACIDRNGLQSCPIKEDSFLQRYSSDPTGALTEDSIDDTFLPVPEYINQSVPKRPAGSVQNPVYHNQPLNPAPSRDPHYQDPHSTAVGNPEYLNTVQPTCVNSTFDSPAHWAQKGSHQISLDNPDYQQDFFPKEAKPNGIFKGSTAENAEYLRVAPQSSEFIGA
For test [5], the target named is BaF3-WT cells (Homo sapiens, UniProt P00533). Kind of test: Cell antiproliferation assay (CellTiter-Glo), BaF3-WT. It counts as cell-based. The conditions noted are these: 48 h treatment, read-out: BaF3-WT IC50. As for the experimental part:
as §2, §3, §4, §5

The target of test [6] is EGFR(Dell9_T790M_C797S) (aa 669-1210, in house) (Homo sapiens, UniProt P00533, T790M/C797S, form not given). In words: Biochemical EGFR inhibition assay (TR-FRET), Del19/T790M/C797S mutant. The conditions noted are these: ATP at Km, 15 min pre-incubation, 60 min reaction; read-out: Del_TM_CS (Km ATP) IC50. The essentials: as §1
EGFR(Dell9_T790M_C797S) (aa 669-1210, in house), sequence (P00533 with tags, fused parts or gaps DEL746-750/T790M/C797S, form open): as above

As usually defined, the IC50 is the concentration needed to halve the response being measured.

T1 sequence (P00533 668-1210): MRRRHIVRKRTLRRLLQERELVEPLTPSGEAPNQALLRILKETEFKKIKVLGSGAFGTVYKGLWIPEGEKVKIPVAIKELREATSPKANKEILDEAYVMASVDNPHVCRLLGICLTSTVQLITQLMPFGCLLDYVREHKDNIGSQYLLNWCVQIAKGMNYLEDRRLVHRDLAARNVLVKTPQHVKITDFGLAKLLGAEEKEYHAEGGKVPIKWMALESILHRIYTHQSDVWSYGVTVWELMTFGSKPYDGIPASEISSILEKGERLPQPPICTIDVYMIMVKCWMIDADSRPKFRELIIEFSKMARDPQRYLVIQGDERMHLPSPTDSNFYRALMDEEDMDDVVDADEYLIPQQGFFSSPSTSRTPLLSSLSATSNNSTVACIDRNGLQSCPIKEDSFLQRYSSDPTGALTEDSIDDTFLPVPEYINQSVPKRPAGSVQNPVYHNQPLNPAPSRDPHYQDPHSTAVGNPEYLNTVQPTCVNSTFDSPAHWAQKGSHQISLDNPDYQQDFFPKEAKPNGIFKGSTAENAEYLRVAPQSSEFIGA

In the case of `COc1cc(N2CCC(N3CCN(C)CC3)CC2)ccc1Nc1ncc(Cl)c(Nc2cccc3c2N(S(C)(=O)=O)CCC3)n1` [Example 10, 5-chloro-N^2-(2-methoxy-4-(4-(4-methylpiperazin-1-yl)piperidin-1-yl)phenyl)-N^4-(1-(methylsulfonyl)-1,2,3,4-tetrahydroquinolin-8-yl)pyrimidine-2,4-diamine], the results for the IC50 in test [1], in test [2] and in test [6] were 2.6 nM, 1.5 nM and 0.39 nM, respectively. The figures for the GI50 in test [3], in test [4] and in test [5] were 143 nM, 46 nM and 1870 nM, respectively.
For `COc1cc(N2CCC(N3CCN(C)CC3)CC2)ccc1Nc1ncc(Cl)c(Nc2cccc3c2N(S(=O)(=O)CC2CC(F)(F)C2)CC3)n1` [Example 11, 5-chloro-N^4-(1-(((3,3-difluorocyclobutyl)methyl)sulfonyl)indolin-7-yl)-N^2-(2-methoxy-4-(4-(4-methylpiperazin-1-yl)piperidin-1-yl)phenyl)pyrimidine-2,4-diamine], the results for the IC50 in test [1], in test [2] and in test [6] were 37 nM, 5.5 nM and 38 nM, respectively. Also, the GI50 amounted to 377 nM in test [3], 453 nM in test [4] and 2280 nM in test [5].
Turning to `COc1cc(N2CCC(N3CCN(C)CC3)CC2)ccc1Nc1ncc(Cl)c(Nc2cccc3c2N(S(=O)(=O)N(C)C)CC3)n1` [Example 13, 7-((5-chloro-2-((2-methoxy-4-(4-(4-methylpiperazin-1-yl)piperidin-1-yl)phenyl)amino)pyrimidin-4-yl)amino)-N,N-dimethylindoline-1-sulfonamide], the IC50 in test [1] came out at 13 nM; in test [2], 1.3 nM; in test [6] it was 6.2 nM. For the same compound, the values for the GI50 in test [3], in test [4] and in test [5] were 294 nM, 158 nM and 897 nM, respectively.
As for `CNS(=O)(=O)N1CCc2cccc(Nc3nc(Nc4ccc(N5CCC(N6CCN(C)CC6)CC5)cc4OC)ncc3Cl)c21` [Example 14, 7-((5-chloro-2-((2-methoxy-4-(4-(4-methylpiperazin-1-yl)piperidin-1-yl)phenyl)amino)pyrimidin-4-yl)amino)-N-methylindoline-1-sulfonamide], the IC50 in test [1] is 1.4 nM; in test [2], 0.24 nM; in test [6] it was 0.59 nM. In addition, the GI50 in test [3] was 14.3 nM; in test [4], 8.76 nM; in test [5], 193 nM.
As for `COc1cc(N2CCC(N3CCN(C)CC3)CC2)ccc1Nc1ncc(Cl)c(Nc2cccc3c2N(C(=O)N(C)C)CC3)n1` [Example 15, 7-((5-chloro-2-((2-methoxy-4-(4-(4-methylpiperazin-1-yl)piperidin-1-yl)phenyl)amino)pyrimidin-4-yl)amino)-N,N-dimethylindoline-1-carboxamide], the figures for the IC50 in test [1], in test [2] and in test [6] were 1360 nM, 369 nM and 2200 nM, respectively. Further, the values for the GI50 in test [3], in test [4] and in test [5] were 2030 nM, 1800 nM and 4120 nM, respectively.
For `CNC(=O)N1CCc2cccc(Nc3nc(Nc4ccc(N5CCC(N6CCN(C)CC6)CC5)cc4OC)ncc3Cl)c21` [Example 16, 7-((5-chloro-2-((2-methoxy-4-(4-(4-methylpiperazin-1-yl)piperidin-1-yl)phenyl)amino)pyrimidin-4-yl)amino)-N-methylindoline-1-carboxamide], the values for the IC50 in test [1], in test [2] and in test [6] were 286 nM, 38 nM and 87 nM, respectively. In addition, the GI50 in test [3] was determined as 1120 nM; in test [4] it was 802 nM; in test [5], 1980 nM.
In the case of `COc1cc(N2CCC(N3CCN(C)CC3)CC2)ccc1Nc1ncc(Cl)c(Nc2cccc3c2N(C(C)=O)CC3)n1` [Example 17, 1-(7-((5-chloro-2-((2-methoxy-4-(4-(4-methylpiperazin-1-yl)piperidin-1-yl)phenyl)amino)pyrimidin-4-yl)amino)indolin-1-yl)ethan-1-one], the IC50 was 21 nM in test [1], 6.7 nM in test [2] and 15 nM in test [6]. Moreover, the GI50 in test [3] was found to be 366 nM; in test [4], 183 nM; in test [5], 1710 nM.
With `COc1cc(N2CCC(N3CCN(C)CC3)CC2)ccc1Nc1ncc(Cl)c(Nc2cccc3c2N(S(C)(=O)=O)C(C)C3)n1` (stereo not drawn) [Example 18, 5-chloro-N^2-(2-methoxy-4-(4-(4-methylpiperazin-1-yl)piperidin-1-yl)phenyl)-N^4-(2-methyl-1-(methylsulfonyl)indolin-7-yl)pyrimidine-2,4-diamine], the IC50 in test [1] worked out at 2.3 nM; in test [2], 0.4 nM; in test [6], 0.68 nM. Moreover, the values for the GI50 in test [3], in test [4] and in test [5] were 16.5 nM, 7.47 nM and 422 nM, respectively.
For the compound `COc1cc(N2CCC(N3CCN(C)CC3)CC2)ccc1Nc1ncc(Cl)c(Nc2cccc3c2N(S(C)(=O)=O)CC3C)n1` (stereo not drawn) [Example 23, 5-chloro-N^2-(2-methoxy-4-(4-(4-methylpiperazin-1-yl)piperidin-1-yl)phenyl)-N^4-(3-methyl-1-(methylsulfonyl)indolin-7-yl)pyrimidine-2,4-diamine], the IC50 is 1.1 nM in test [1], 0.54 nM in test [2] and 0.54 nM in test [6]. The GI50 was 38.4 nM in test [3], 13.3 nM in test [4] and 453 nM in test [5].
Regarding `COc1cc(N2CCC(N3CCN(C)CC3)CC2)ccc1Nc1ncc(Cl)c(Nc2cccc3c2N(S(C)(=O)=O)CC3)n1` [Example 30, 5-chloro-N^2-(2-methoxy-4-(4-(4-methylpiperazin-1-yl)piperidin-1-yl)phenyl)-N^4-(1-(methylsulfonyl)indolin-7-yl)pyrimidine-2,4-diamine], the concentration for half-maximal inhibition (IC50) in test [1] came out at 0.4 nM; in test [2] it was 0.3 nM; in test [6], 0.2 nM. The GI50 in test [3] amounted to 37.3 nM; in test [4], 7.59 nM; in test [5] it was 411 nM.
Consider `COc1cc(N2CCC(N3CCN(C)CC3)CC2)ccc1Nc1ncc(C(F)(F)F)c(Nc2cccc3c2N(S(C)(=O)=O)CC3)n1` [Example 31, N^2-(2-methoxy-4-(4-(4-methylpiperazin-1-yl)piperidin-1-yl)phenyl)-N^4-(1-(methylsulfonyl)indolin-7-yl)-5-(trifluoromethyl)pyrimidine-2,4-diamine], for which the IC50 in test [1] was determined as 3.1 nM; in test [2] it was 0.33 nM; in test [6], 0.47 nM. In addition, the GI50 in test [3] worked out at 109 nM; in test [4], 26.2 nM; in test [5], 522 nM.
For `COc1cc(N2CCC(N3CCN(C)CC3)CC2)ccc1Nc1ncc(F)c(Nc2cccc3c2N(S(C)(=O)=O)CC3)n1` [Example 32, 5-fluoro-N^2-(2-methoxy-4-(4-(4-methylpiperazin-1-yl)piperidin-1-yl)phenyl)-N^4-(1-(methylsulfonyl)indolin-7-yl)pyrimidine-2,4-diamine], the IC50 in test [1] was 0.88 nM; in test [2] it was 1.9 nM; in test [6], 0.54 nM. The GI50 worked out at 246 nM in test [3], 62.8 nM in test [4] and 570 nM in test [5].
`COc1cc(N2CCC(N3CCN(C)CC3)CC2)ccc1Nc1ncc(C#N)c(Nc2cccc3c2N(S(C)(=O)=O)CC3)n1` [Example 33, 2-((2-methoxy-4-(4-(4-methylpiperazin-1-yl)piperidin-1-yl)phenyl)amino)-4-((1-(methylsulfonyl)indolin-7-yl)amino)pyrimidine-5-carbonitrile]: the IC50 in test [1] came out at 1.3 nM; in test [2], 1.3 nM; in test [6], 1 nM. Besides, the GI50 is 225 nM in test [3], 68.5 nM in test [4] and 328 nM in test [5].
